We go through 5 molecules from patent US20230053493A1, “ONE STEP METHODS, KITS, AND SYSTEMS FOR THE MEASUREMENT OF CONCENTRATIONS OF UNBOUND BILIRUBIN IN BIOLOGICAL FLUIDS” (priority 2019, published 2023).

The Kd is the constant that tells how readily two partners part at equilibrium.

For one data set, the target named is Albumin (Homo sapiens, UniProt P02768). The following applies: cefazolin 3.76 mM.
The target in the next data set is adult human albumin (Homo sapiens, UniProt P02768). The following applies: high affinity site; read-out: equilibrium dissociation constant (Kd) of bilirubin for adult human albumin; cited from earlier work.
Chain of adult human albumin (P02768 25-609): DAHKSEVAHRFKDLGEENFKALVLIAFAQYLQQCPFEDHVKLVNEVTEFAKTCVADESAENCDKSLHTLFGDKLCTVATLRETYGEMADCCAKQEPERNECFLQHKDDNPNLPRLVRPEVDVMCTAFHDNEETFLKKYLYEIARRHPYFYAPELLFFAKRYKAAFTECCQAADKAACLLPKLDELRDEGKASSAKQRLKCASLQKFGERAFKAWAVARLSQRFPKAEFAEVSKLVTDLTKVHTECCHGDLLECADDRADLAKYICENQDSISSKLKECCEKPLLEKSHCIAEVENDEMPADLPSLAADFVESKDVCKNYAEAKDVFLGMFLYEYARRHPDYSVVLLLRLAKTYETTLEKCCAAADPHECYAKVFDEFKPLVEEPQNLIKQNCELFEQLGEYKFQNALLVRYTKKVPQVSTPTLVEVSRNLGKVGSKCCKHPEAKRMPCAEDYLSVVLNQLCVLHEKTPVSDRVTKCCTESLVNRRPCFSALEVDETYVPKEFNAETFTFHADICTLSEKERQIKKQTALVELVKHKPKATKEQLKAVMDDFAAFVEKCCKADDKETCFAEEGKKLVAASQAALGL
Data set [1] is described as follows: Interference of conjugated bilirubin (ditaurobilirubin) with Bf measurement, UBCheck vs Arrows UA-2. Set-up: species or system human. The method, then:
The potential interference of conjugated bilirubin with the bilirubin probes is determined by measuring the effect of ditaurobilirubin on the ability of the UBCheck to measure Bf accurately. We also compared the UBCheck results with measurements using the Arrows UB analyzer UA-2 method. The measurements are performed by spiking neonatal serum with unconjugated bilirubin to yield a Bf of approximately 10 nM and then titrating the spiked sample with ditaurobilirubin up to 20 mg/dl (FIG. 7). At each step Bf is measured by UBCheck and Arrows and the direct (conjugated) bilirubin concentration is determined using a Sigma direct bilirubin kit. At zero ditaurobilirubin both UBCheck and Arrows yield Bf of 10 nM but the direct bilirubin measurement yields a non-zero value of about 0.5 mg/dl (FIG. 7). With increasing concentrations of ditaurobilirubin UBCheck is unchanged but Arrows increases starting at about 0.5 mg/dl of ditaurobilirubin and then increases rapidly until 4 mg/dl ditaurobilirubin where the Arrow's assay saturates at Bf ≥50 nM. In contrast, the UBCheck only begins to increase at 4 mg/dl ditaurobilirubin where its Bf increase to about 12 nM, a 20% increase from the initial 10 nM level, and only at 20 mg/dl ditaurobilirubin does Bf increase to 33 nM.

The nature of data set [2]: Effect of hemoglobin/hemolysate on UBCheck Bf measurement. Also on record: species or system human. To be noted: bilirubin spiked neonatal serum; hemoglobin concentrations at least as high as 4 g/l; cartridges with Hb blocking peptide. The method, then: After the Bf responder and non-responder probes are applied to the Ni-polystyrene beads, the peptide of Table 4 is added to the beads and is attached through double HIS tags to the bead's Ni-NTAs. The combined probes plus peptide beads are then spotted onto cartridges. The effect of whole blood hemolysate was tested by titrating bilirubin spiked neonatal serum with increasing hemoglobin concentrations.

The nature of data set [3]: Stability of non-responder probe 700/819 nm emission ratio in storage. The following applies: at 1 and 6 days; absence of 700DX-maleimide. It counts as physicochemical. The source says: All responder probes labeled with LICOR 700DX-maleimide and non-responder probes labeled with LICOR 800CW-maleimide probes in Tables 1 and 2, respectively have qualitatively similar dependencies on Bf. The probes differ mostly in protein expression, binding parameters (Kd, Ro and Rm) and stability. […] Although the non-responders are not characterized by bilirubin binding parameters, the emission spectrum of the 800CW-maleimide is sensitive to specific substitutions that can alter the LICOR 700DX-maleimide intensities. […] In some of these mutants the ratio of 700 to 819 nm increased from about 1% to 20% while in storage at 4° C. With suitable mutations this instability was eliminated.

Data set [4] is described as follows: Fluorescence intensities of Bf sensor with increasing total bilirubin (FIG. 1). The format is binding. To be noted: increasing BT; 675 nm excitation; probe 10 nM, free in aqueous buffer. The protocol:
FIG. 1 depicts the intensities and ratios of intensities for a Bf sensor composed of the bilirubin responsive LICOR 700DX maleimide Mut:SEQ ID NO:2-76C probe (Table 1) and the bilirubin non-responder LICOR 800CW maleimide Mut:SEQ ID NO:1 B-73C probe (Table 2), both free in aqueous buffer, with increasing BT (total bilirubin) which at the concentrations used is primarily unbound bilirubin (Bf). Measurements of the 710 and 805 nm intensities at 675 nm excitation were performed at the probe concentrations of 1.5 nM and 10 nM, respectively in a Horiba Fluorolog 2.

Chain of Albumin (P02768 25-609): as above

On to `Cc1nnc(SCC2=C(C(=O)O)N3C(=O)[C@@H](NC(=O)Cn4cnnn4)[C@H]3SC2)s1` [Cefazolin], for which, at Albumin, the “Bf larger in the UBCheck than Arrows” value is on record as around 5 fold.
On to `C=CC1=C(C)/C(=C/c2[nH]c(Cc3[nH]c(/C=C4\NC(=O)C(C)=C4C=C)c(C)c3CCC(=O)O)c(CCC(=O)O)c2C)NC1=O` [bilirubin], for which the Kd on adult human albumin is around 0.02 µM.
In the case of ditaurobilirubin, in data set [1] (Arrows UA-2, samples diluted 52-fold, 4 mg/dl ditaurobilirubin), the “Bf (assay saturates)” value is reported as at least 50 nM. The “increase of Bf from the initial 10 nM level” value in data set [1] (UBCheck, 4 mg/dl ditaurobilirubin) worked out at 20%. Further, the Bf result is “about 12 nM” in data set [1] (UBCheck, 4 mg/dl ditaurobilirubin, neonatal serum spiked to Bf of approximately 10 nM) and 33 nM in data set [1] (UBCheck, 20 mg/dl ditaurobilirubin).
For hemoglobin, in data set [2], the “Bf concentration relative to zero hemoglobin” value is listed as “unaffected”.

B1: Mut:SEQ ID NO:1 B-73C: non-responder rat FABP mutein 20R 27A 29R 72A 73C 74F 100R 126W 131D-C2XH11 labeled with LICOR 800CW-maleimide (protein)
chain: AFDGTWKVDRNENYEKFMERMGINVVARRLGAHDNLKLTITQEGNKFTVKESSNFRNIDVVFELGVDFAYSACFGTELTGTWTMEGNKLVGKFKRVDNGRELIAVREISGNELIQTYTYEGVEAKWIFKKDRGAASHHHHHHSHRATPNTSPHHHHHHH
modifications: LICOR 800CW-maleimide label; nonresponder mutated probe
notes: non-responder rat FABP mutein 20R 27A 29R 72A 73C 74F 100R 126W 131D-C2XH11 labeled with LICOR 800CW-maleimide
Consider B1, for which the 700/819 ratio in data set [3] is reported as 1%. In addition, the “intensity change (cv) of LICOR 800CW maleimide measured at 805 nm” value in data set [4] stood at 2.5%.
